The source of these data is patent publication US20230414593A1, “EZH2 INHIBITION THERAPIES FOR THE TREATMENT OF ANDROGEN RECEPTOR MUTATED PROSTATE CANCERS” (Constellation Pharmaceuticals, Inc, priority 2020, published 2023).

The test system of the assay is LNCaP-FGC tumor cells. In words: Tumor growth inhibition in prostate cancer LNCaP model with AR mutation H875Y. The class given is in vivo, mouse. The settings on record: 75 mg/kg orally once daily, LNCaP-FGC subcutaneous tumors, Cmp. 1 compared with Cmp. 2, FIG. 2. As for the experimental part: (R)-7-chloro-2-((1r,4R)-4-(3-methoxyazetidin-1-yl)cyclohexyl)-2,4-dimethyl-N-((6-methyl-4-(methylthio)-2-oxo-1,2-dihydropyridin-3-yl)methyl)benzo[d][1,3]dioxole-5-carboxamide and R—N-((4-methoxy-6-methyl-2-oxo-1,2-dihydropyridin-3-yl)methyl)-2-methyl-1-(1-(1-(2,2,2-trifluoroethyl)piperidin-4-yl)ethyl)-1H-indole-3-carboxamide were examined in a prostate cancer LNCaP Model with AR mutation H875Y.
A fixed dose of 75 mg/kg was used for both compounds. Each mouse was inoculated subcutaneously at the right flank with LNCaP-FGC tumor cells (10×10^6) in 0.1 ml of PBS mixed with RPMI-1640:Matrigel (50:50) for tumor development. The treatments started when the average tumor volume reached approximately 158 mm^3. The test articles were administered orally once daily. The tumor size was used for the calculation of tumor growth inhibition (TGI)=[1−(T1−T0)/(C1−C0)]×100, where C1=mean tumor volume of control mice at time t, T1=mean tumor volume of treated mice at time t, C0=mean tumor volume of control mice at time 0, and T0=mean tumor volume of treated mice at time 0].

For the molecule `COC1CN([C@H]2CC[C@H]([C@@]3(C)Oc4c(Cl)cc(C(=O)NCc5c(SC)cc(C)[nH]c5=O)c(C)c4O3)CC2)C1` [Cmp. 1, (R)-7-chloro-2-((1r,4R)-4-(3-methoxyazetidin-1-yl)cyclohexyl)-2,4-dimethyl-N-((6-methyl-4-(methylthio)-2-oxo-1,2-dihydropyridin-3-yl)methyl)benzo[d][1,3]dioxole-5-carboxamide], the “tumor growth inhibition (TGI), relative tumor volume % reduction” value was “more efficacious at tumor growth inhibition”. Further, the “tumor growth inhibition (TGI), relative tumor volume % reduction” value (listed as (R)-7-chloro-2-(1r,4R)-4-(3-methoxyazetidin-1-yl)cyclohexyl)-2,4-dimethyl-N-((6)) is reported as “more efficacious”.
